Holding throughout (assay type): in vivo
Test [1] deals with male OF1 mice. The test is described as follows: Formalin test (phase I), number of paw lickings after oral administration. The following applies: 120 minutes after administration (FIG. 2). An excerpt: A/Formalin Test (Phase I) […]
The animals (male OF1 mice) come from the Charles River breeder (France) and weigh 25-35 g at the beginning of the experiment. The weight of each mouse is taken into account for administering the product.
The test is based on the procedure described by S. HUNSKAAR et al., Formalin test in mice, a useful technique for evaluating mild analgesics, J. Neurosci. Methods […], 14, 69-75.
The mice (n=8) are individually placed in a transparent enclosure (50×25 cm) and become accustomed to this environment for 20 minutes. After this period, 20 μL of formalin (5% HCHO) in solution in saline solution (H2O, 0.9% NaCl), are injected subcutaneously on the plantar face of the right paw of the animal. A 26 syringe connected to a microsyringe is used. Each mouse is then immediately placed back into the test enclosure and pain (nociceptive) responses are measured for 5 minutes (early phase). Only the lickings of the paw are counted. […]
The analgesic action of the product is measured by the decrease in the number of lickings of the lesioned paw, as compared with the number of lickings of the animal which has received the carrier alone. […]

The test system of test [2] is male OF1 mice. As to the kind of experiment: Plantar test: thermal hyperalgesia after partial ligature of the sciatic nerve. The protocol: (§1) This test was described in detail by A. B. Malmberg and A. I. Basbaum, Partial sciatic nerve injury in the mouse as a model of neuropathic pain: behavioural and neuroanatomical correlates. Pain, (1998) 76, 215-222.
(§2) It was conducted on male OF1 mice (Charles River), of 18-20 g, n=39, by partial ligature of the sciatic nerve on the ipsilateral side. The animals are tested in the period (3-26 days) after the operation.
Measurement of hyperalgesia was carried out according to the method described by K. Hargreaves et al., A new sensitive method for measuring thermal nociception in cutaneous hyperalgesia, Pain, (1988), 32, 77-88, by using as a heat source, the “Plantar test” apparatus (Bioseb, France). The intensity of the nociceptive stimulus is calibrated to 8-10 s with an automatic stopping threshold (cut-off time) at 20 s. The average of the withdrawals of the paw induced by the heat, was measured on the ipsilateral paws (damaged nerve) and contralateral paws (intact nerve). This measurement was carried out 3 times on each paw. Mechanical allodynia is measured as described by S. R. Chaplan et al., Quantitative assessment of tactile allodynia in the rat paw, J. Neurosci. Meth. (1994), 53, 55-63. The ipsilateral (lesion) and contralateral (control) paws are tested as earlier. The mechanical antiallodynic effect is measured by the method of Von Frey with filaments of increasing size exerting also increasing pressure.
FIG. 3: Neuropathic pain model: partial ligature of the sciatic nerve (mice). Response generated by per os administration of the carrier (□) or of the compound of Example 10 (▪): removal of the paw (in second) versus time (in minutes).
Carrier: EtOH/0.5% methylcellulose (1.5/98.5)
Tests carried out at day 14 post-surgery; ipsilateral paw
Abscissa: time in minutes, ordinate: withdrawal of the paw in seconds
Plantar test: evaluation of thermal hyperalgia
Average of the contralateral paws: compound 10 at 90 min=8.3 s.

Test [3] deals with male OF1 mice. As to the kind of experiment: Von Frey test: mechanical allodynia after partial ligature of the sciatic nerve. The following applies: oral 50 mg/kg, maximum at 60 min, day 14 post-surgery. On the procedure: as §1, §2
Measurement of hyperalgesia was carried out according to the method described by K. Hargreaves et al., A new sensitive method for measuring thermal nociception in cutaneous hyperalgesia, Pain, (1988), 32, 77-88, by using as a heat source, the “Plantar test” apparatus (Bioseb, France). The intensity of the nociceptive stimulus is calibrated to 8-10 s with an automatic stopping threshold (cut-off time) at 20 s. The average of the withdrawals of the paw induced by the heat, was measured on the ipsilateral paws (damaged nerve) and contralateral paws (intact nerve). […] Mechanical allodynia is measured as described by S. R. Chaplan et al., Quantitative assessment of tactile allodynia in the rat paw, J. Neurosci. […] The mechanical antiallodynic effect is measured by the method of Von Frey with filaments of increasing size exerting also increasing pressure.
The effect of the compound of Example 10 on mechanical allodynia is measured by the Von Frey test. […]

Consider two compounds from patent publication US8466309B2, “Amino acid derivatives, method for preparing same, and therapeutic use thereof” (priority 2008, dated 2013).

Consider “NH2—CH(CH2CH2SCH3)—CH2—S—S—CH2—CH(CH2C6H5)—CONH—CH2—CONH—CO—CH(CH3)—O—CO—OCH2CH3 [Compound 15]”, for which, in the test with male OF1 mice [1], the “analgesic activity at 120 minutes” value is “no longer has any activity”.
On to `CSCCC(CSSCC(Cc1ccccc1)C(=O)NCC(=O)O)NC(=O)OC(C)OC(=O)C(C)C` (stereo not drawn) [Example 10, 1-{1-[2-(carboxymethyl-carbamoyl)-3-phenyl-propyl-disulfanylmethyl]-3-methylsulfanyl-propylcarbamoyl-oxy}-ethyl isobutyric acid ester], for which the “withdrawal of the paw, average of the contralateral paws” value in the test on male OF1 mice [2] (50 mg/kg, at 90 min, intact nerve side) worked out at 8.3 s. The “maximum effect on thermal hyperalgesia” value in the test on male OF1 mice [2] (p.o. 50 mg/kg, at 80 min) is 100%. For the same compound, the “withdrawal of the paw (ipsilateral paw)” value in the test on male OF1 mice [2] (p.o. 50 mg/kg, at 80 min, plantar test, day 14 post-surgery) worked out at 8.2 ± 0.9 s. Besides, the “decrease of thermal hyperalgesia induced by partial ligature of the sciatic nerve” value in the test on male OF1 mice [2] (p.o. 50 mg/kg, period from 45 to 150 min, day 14 post-surgery, ipsilateral paw) was 65-100%. Moreover, the “anti-allodynic effect, maximum, as % of the maximum response (non-treated control)” value in the test on male OF1 mice [3] is 75%.
